Test results published in patent US11937603B2, “Maleimide derivatives having herbicidal activity, agronomic compositions of the maleimide derivatives, and uses thereof” (Gowan Company, LLC, priority 2018, dated 2024).

Key:
Assay type in all cases: in vivo
[1] = test system: Echinochloa crus-galli; experiment: Herbicidal activity in post-emergence; conditions: dose of 250 g/ha, post-emergence (BBCH 11-12), twenty-one days after treatment, vs untreated control
Experimental: (§1) The herbicidal activity of the compounds of the invention in post-emergence was evaluated according to the following operating modes.
(§2) The plant species of interest (weeds or crops) were sown in pots with a diameter greater than 10 cm, a height of 10 cm and containing sandy soil. Six pots were used for each plant species.
(§3) Water was added to each pot in an amount suitable for the germination of the seeds. The pots were then divided into two groups each containing 3 pots for each weed or crop.
(§4) Upon reaching the phenological stage of the plants with 1-2 extended leaves (BBCH 11-12), the first group of pots was treated with the same hydroacetone dispersion containing 20% acetone by volume, the compound under evaluation at the desired dose and Tween 20 at 0.5% by weight, indicated in Example 6.
(§5) The second group was treated only with a hydroacetone solution containing acetone at 20% by volume and Tween 20 at 0.5% by weight, and was used as a comparison term (control).
(§6) All the pots were kept under observation in a conditioned environment (greenhouse) under the following environmental conditions: • temperature: 24° C. during the day and 18° C. at night • relative humidity: >50% • photoperiod: 16 hours; • light intensity: 12,000 lux.
(§7) The pots were uniformly watered as needed, so as to ensure a degree of humidity sufficient for a good development of the plants.
(§8) Twenty-one days after treatment, the herbicidal activity was evaluated according to the percentage of damage (scale 0-100%) found on the treated plants compared to the untreated plants (control): • 0%=No effect on the plants • 100%=Complete death of the plants
(§9) Nrs. 11,4,2,3 compared with a hydroacetone dispersion containing the Compound CR1 described in EP0297378.

[2] = test system: Digitaria sanguinalis; experiment: Herbicidal activity in post-emergence; conditions: dose of 250 g/ha, post-emergence (BBCH 11-12), twenty-one days after treatment, vs untreated control
Experimental: as §1, §2, §3, §4, §5, §6, §7, §8, §9

[3] = test system: Sida spinosa; experiment: Herbicidal activity in post-emergence; conditions: dose of 250 g/ha, post-emergence (BBCH 11-12), twenty-one days after treatment, vs untreated control
Experimental: as §1, §2, §3, §4, §5, §6, §7, §8, §9

[4] = test system: Setaria viridis; experiment: Herbicidal activity in pre-emergence; conditions: dose of 250 g/ha, twenty-one days after treatment, vs untreated control
Experimental: (§10) The herbicidal activity of the compounds of the invention in pre-emergence was evaluated according to the following operating modes.
(§11) The plant species of interest (weeds or crops) were sown in pots with a diameter of 10 cm, a height of 10 cm and containing sandy soil. Six pots of each plant species were used.
as §3
(§12) One day after sowing, the first group of pots was treated with a dispersion having the following composition:
(§13) The dispersion was prepared by adding a desired dose of a compound of the present invention to a hydroacetone solution containing acetone at 20% by volume and Tween 20 at 0.5% by weight, with respect to the total weight of the dispersion and applied on a surface of 2 square meters. […]
as §5, §6, §7, §8
(§14) Nrs. 4 and 2 compared with a dispersion containing the Compound CR1 described in EP0297378 instead of the compound having general formula (I): […]

[5] = test system: Amaranthus retroflexus; experiment: Herbicidal activity in pre-emergence; conditions: dose of 250 g/ha, twenty-one days after treatment, vs untreated control
Experimental: as §10, §11, §3, §12, §13, §5, §6, §7, §8, §14

[6] = test system: Solanum nigra; experiment: Herbicidal activity in pre-emergence; conditions: dose of 250 g/ha, twenty-one days after treatment, vs untreated control
Experimental: as §10, §11, §3, §12, §13, §5, §6, §7, §8, §14

[7] = test system: Lolium rigidum; experiment: Herbicidal activity in pre-emergence; conditions: dose of 250 g/ha, twenty-one days after treatment, vs untreated control
Experimental: as §10, §11, §3, §12, §13, §5, §6, §7, §8, §14

[8] = test system: Abutilon theophrasti; experiment: Herbicidal activity in pre-emergence; conditions: dose of 250 g/ha, twenty-one days after treatment, vs untreated control
Experimental: as §10, §11, §3, §12, §13, §5, §6, §7, §8, §14

| Molecule | Herbicidal activity in post-emergence (percentage of damage, scale 0-100%) [1] [%] | Herbicidal activity in post-emergence (percentage of damage, scale 0-100%) [2] [%] | Herbicidal activity in post-emergence (percentage of damage, scale 0-100%) [3] [%] | Herbicidal activity in pre-emergence (percentage of damage, scale 0-100%) [4] [%] | Herbicidal activity in pre-emergence (percentage of damage, scale 0-100%) [5] [%] | Herbicidal activity in pre-emergence (percentage of damage, scale 0-100%) [6] [%] | Herbicidal activity in pre-emergence (percentage of damage, scale 0-100%) [7] [%] | Herbicidal activity in pre-emergence (percentage of damage, scale 0-100%) [8] [%] |
| --- | --- | --- | --- | --- | --- | --- | --- | --- |
| 1-(5-tert-butyl-1,3,4-thiadiazol-2-yl)-3,4-dimethyl-2-methoxyethylcarbonate-2H-pyrrol-2-yl-5-one [Compound 3] | 95 | 90 | 90 | – | – | – | – | – |
| CC1=C(C)C(O)N(c2cc(C(C)(C)C)on2)C1=O (stereo not drawn) [CR1, 1-(5-tert-butylisoxazol-3-yl)-2-hydroxy-3,4-dimethyl-2H-pyrrol-5-one, reference compound] | 85 | 40 | 40 | 79 | 60 | 90 | 80 | 90 |
| COCC(=O)OC1C(C)=C(C)C(=O)N1c1nnc(C(C)(C)C)s1 (stereo not drawn) [Compound 2, 1-(5-tert-butyl-1,3,4-thiadiazol-2-yl)-3,4-dimethyl-2-methoxyacetate-2H-pyrrol-5-one] | 100 | 100 | 90 | 100 | 92 | 95 | 100 | 95 |
| CC1=C(C)C(OC(=O)C2CC2)N(c2cc(C(C)(C)C)on2)C1=O (stereo not drawn) [Compound 4, 1-(5-tert-butylisoxazole-3-yl)-2-cyclo-propanecarbonyloxy-3,4-dimethyl-2H-pyrrol-5-one] | 100 | 100 | 100 | 100 | 80 | 100 | 90 | 100 |
